{"source": "patent US20100003217A1", "about": "“Compounds and Pharmaceutical Compositions for the Treatment of Viral Infections” (priority 2008, published 2010)", "key": {"[1]": {"assay": "Radiochemical purity of the test article in dose formulations before and after dosing", "type": "physicochemical", "details": "PEG 200 with 5% DMSO", "method": "Two dose formulations (50 mg/mL for the IV dose Groups 1A-C and 100 mg/mL for the PO dose Groups 2A-C) were prepared in PEG 200 containing 5% DMSO. Subsamples of the dose formulations were removed before and after the dose administration. An aliquot (10 μL) of each subsample was diluted by adding methanol (490 μL) and 20 mM ammonium formate in water (1500 μL). The diluted dose formulations were analyzed for determination of radiochemical purity by HPLC method 1.\nTwo dose formulations (50 mg/kg for the IV dose Groups 1A-C and 100 mg/kg for the PO dose Groups 2A-C) were prepared by the following procedure. Both formulations were prepared in PEG 200 containing 5% DMSO. The required amount of radioactive material was weighed and ground to a fine powder with a spatula. 30% of the final volume of PEG 200 and the weighed test article was added to a formulation vial while stirring under magnetic agitation to obtain a uniform formulation. The final volume was made up with PEG 200. The formulation was sonicated at room temperature for 15 minutes or longer to obtain homogenous suspension. The cycles of sonication/agitation were continued until the formulation was homogeneous. Triplicate aliquots were removed for determination of homogeneity (CV). The radioactivity concentration of the formulation was determined and specific activity was calculated.\nThe dose aliquots were analyzed by HPLC method 1 after diluting 10 μL of each formulation with 490 μL of methanol and 1.5 mL of the aqueous mobile phase."}, "[2]": {"tested_on": "HCV genotype 1b replicon (Zluc cells)", "assay": "HCV luciferase replicon assay", "type": "cell-based, hepatitis C virus", "details": "Hepatitis C virus, 72 h, 3 days", "method": "The HCV luciferase replicon assay measures the ability of a test compound to inhibit HCV replication in cell culture after 3 days of treatment in a human hepatoma cell line (Huh-7) bearing the HCV genotype 1b replicon and a luciferase-neomycin phosphotransferase fusion gene. The inhibition of HCV replication was measured by quantification of luciferase protein expression. The HCV luciferase replicon was constructed by fusing a luciferase gene to the amino terminus of the neomycin phosphotransferase gene of the ZS11 HCV replicon. The ZS11 HCV replicon (Zhu Q, Guo J-T, and Seeger C, 2003) is derived from the SP1 replicon, but contains three cell culture-adapted mutations: E1202G (NS3), S22041 (NS5A), and D2254E (NS5A). These mutations allow for efficient in vitro replication. The luciferase reporter gene was amplified from the pGL4.13[luc2/SV40] vector (Promega Corp.). The replicon resulting from the luciferase-neomycin fusion (ZS11-luc) was stably-transfected into Huh-7 cells, yielding the Zluc cell line.\nThe luciferase replicon assay is summarized as follows: Solid white 96-well tissue culture plates (BD Falcon) were seeded with Zluc cells. Antiviral compound solutions were made up freshly in medium as 2×-concentrated stocks. Eight additional 3-fold drug dilutions were prepared from these stocks in medium for a total of 9 dilutions. At least four hours after Zluc cells were seeded, drug treatment was initiated by adding one volume of each 2×-concentrated drug dilution to one volume of cells/medium in the tissue culture plates. Cells were then incubated for 3 days at 37° C./5% CO2.\nThe media/compound was then removed from the plates and the ONE-glo Luciferase assay reagent (Promega) was added to each well. The assay plates were shaken for 3 minutes at room temperature and luciferase activity for each well was measured with a 1 sec read time on the Victor^3V multilabel counter using a 700 nm cut-off filter (Perkin Elmer). EC50 values were calculated from dose response curves from the resulting best-fit equations determined by Microsoft Excel and XLfit 4.1 software."}, "[3]": {"assay": "Total radioactivity in rat liver after [^14C]-Compound 1", "type": "in vivo, male Sprague-Dawley rats", "method": "Isotopically diluted [^14C]-Compound 1 was administered intravenously to male Sprague-Dawley rats at 50 mg/kg or by oral gavage at 100 mg/kg.\nLiver samples were collected at 2, 6 and 24 h postdose from the animals of both the IV and the PO dose groups. The samples were flash frozen after excision and kept on dry ice during homogenization. The homogenization was conducted on dry ice in 70% methanol-30% water containing 20 mM EDTA and 20 mM EGTA (about 1× (w/v) weight of the liver). Triplicate weighed aliquots (about 500 mg) were combusted in the Packard Sample Oxidizer and followed by LSC analysis to determine radioactivity […]). The average data for levels of total radioactivity in liver are summarized below."}, "[4]": {"assay": "Cytotoxicity assay (MTS), GS4.1 cells", "type": "cell-based, human", "details": "human, 3 days (NS4A-ELISA Assay)", "method": "The cytotoxicity assay measures the viability of cells after treatment with a test compound for 3 days in either GS4.1 cells or Zluc cells. […] The cytotoxicity assay is summarized as follows. Ninety-six-well tissue culture plates were seeded with GS4.1 or Zluc cells. Antiviral compound solutions were made up freshly in medium as 2×-concentrated stocks. Eight additional 3-fold drug dilutions were prepared from these stocks in medium for a total of 9 dilutions. At least four hours after the cells were seeded, drug treatment was initiated by adding one volume of each 2×-concentrated drug dilution to one volume of cells/medium in the tissue culture plates. Cells were then incubated for 3 days at 37° C./5% CO2. After 3 days of treatment, the CellTiter 96® Aqueous One Solution cell proliferation assay (Promega) was performed by adding the MTS solution to each well. The plates were then incubated at 37° C./5% CO2 for 3.5 hours. Plates were then read in a Victor^3V 1420 multilabel counter (Perkin Elmer) and CC50 concentrations were determined using Microsoft Excel and XLfit 4.1 software."}, "[5]": {"details": "Group 1A: IV 50 mg/kg, 2 h postdose"}, "[6]": {"details": "Group 1B: IV 50 mg/kg, 6 h postdose"}, "[7]": {"details": "Group 1C: IV 50 mg/kg, 24 h postdose"}, "[8]": {"details": "Group 2A: PO 100 mg/kg, 2 h postdose"}, "[9]": {"details": "Group 2B: PO 100 mg/kg, 6 h postdose"}, "[10]": {"details": "Group 2C: PO 100 mg/kg, 24 h postdose"}}}
{"smiles": "CC(C)(CO)C(=O)SCCOP(=O)(NCc1ccccc1)OC[C@H]1O[C@@H](n2cnc3c(=O)[nH]c(N)nc32)[C@](C)(O)[C@@H]1O", "note": "(mixture of isomers) [Compound 1, 3-hydroxy-2,2-dimethyl-thiopropionic acid S-(2-{[(2R,3R,4R,5R)-5-(2-amino-6-oxo-1,6-dihydro-purin-9-yl)-3,4-dihydroxy-4-methyl-tetrahydro-furan-2-ylmethoxy]-benzylamino-phosphoryloxy}-ethyl) ester]", "values": [{"measurement": "Radiochemical Purity of the test article in dose formulation (total of two isomers)", "setting": "[1]; IV formulation, Groups 1A-C, Postdose", "value": 99.1, "unit": "%"}, {"measurement": "Radiochemical Purity of the test article in dose formulation (total of two isomers)", "setting": "[1]; IV formulation, Groups 1A-C, Predose", "value": 99.0, "unit": "%"}, {"measurement": "Radiochemical Purity of the test article in dose formulation (total of two isomers)", "setting": "[1]; PO formulation, Groups 2A-C, Postdose", "value": 98.9, "unit": "%"}, {"measurement": "Radiochemical Purity of the test article in dose formulation (total of two isomers)", "setting": "[1]; PO formulation, Groups 2A-C, Predose", "value": 98.6, "unit": "%"}, {"measurement": "EC50", "setting": "[2]", "value": "0.068 ± 0.0004", "unit": "µM"}, {"measurement": "Concentration of total radioactivity in liver as μg equivalents/gram", "setting": "[3]; [5]", "value": "206 ± 24", "unit": "μg equivalents/gram"}, {"measurement": "Total radioactivity in liver as % AD", "setting": "[3]; [5]", "value": "15.5 ± 0.7", "unit": "% AD"}, {"measurement": "Concentration of total radioactivity in liver as μg equivalents/gram", "setting": "[3]; [6]", "value": "137 ± 12", "unit": "μg equivalents/gram"}, {"measurement": "Total radioactivity in liver as % AD", "setting": "[3]; [6]", "value": "10.1 ± 1.0", "unit": "% AD"}, {"measurement": "Concentration of total radioactivity in liver as μg equivalents/gram", "setting": "[3]; [7]", "value": "23.2 ± 3.1", "unit": "μg equivalents/gram"}, {"measurement": "Total radioactivity in liver as % AD", "setting": "[3]; [7]", "value": "1.76 ± 0.11", "unit": "% AD"}, {"measurement": "Concentration of total radioactivity in liver as μg equivalents/gram", "setting": "[3]; [8]", "value": "5.09 ± 0.78", "unit": "μg equivalents/gram"}, {"measurement": "Total radioactivity in liver as % AD", "setting": "[3]; [8]", "value": "0.20 ± 0.04", "unit": "% AD"}, {"measurement": "Concentration of total radioactivity in liver as μg equivalents/gram", "setting": "[3]; [9]", "value": "10.3 ± 1.2", "unit": "μg equivalents/gram"}, {"measurement": "Total radioactivity in liver as % AD", "setting": "[3]; [9]", "value": "0.37 ± 0.05", "unit": "% AD"}, {"measurement": "Concentration of total radioactivity in liver as μg equivalents/gram", "setting": "[3]; [10]", "value": "4.08 ± 1.10", "unit": "μg equivalents/gram"}, {"measurement": "Total radioactivity in liver as % AD", "setting": "[3]; [10]", "value": "0.17 ± 0.03", "unit": "% AD"}, {"measurement": "total radioactivity in liver, % of the administered dose", "setting": "[3]; IV [^14C]Compound 1, 2 h", "value": 16, "unit": "%"}, {"measurement": "total radioactivity in liver, % of the administered dose", "setting": "[3]; IV [^14C]Compound 1, 6 h", "value": 10, "unit": "%"}, {"measurement": "total radioactivity in liver, % of the administered dose", "setting": "[3]; IV [^14C]Compound 1, 24 h", "value": 1.8, "unit": "%"}, {"measurement": "total radioactivity in liver", "setting": "[3]; IV, 2 h", "value": "206 μg equivalents of Compound 1/g of liver"}, {"measurement": "total radioactivity in liver", "setting": "[3]; IV, 6 h", "value": "137 μg equivalents of Compound 1/g of liver"}, {"measurement": "total radioactivity in liver", "setting": "[3]; IV, 24 h", "value": "23 μg equivalents of Compound 1/g of liver"}, {"measurement": "total radioactivity in liver", "setting": "[3]; oral administration, 2 h", "value": "5 μg equivalents of Compound 1/g of liver"}, {"measurement": "total radioactivity in liver, % of the dose", "setting": "[3]; oral administration, 2 h", "value": 0.2, "unit": "%"}, {"measurement": "total radioactivity in liver", "setting": "[3]; oral administration, 6 h", "value": "10 μg equivalents of Compound 1/g of liver"}, {"measurement": "total radioactivity in liver, % of the dose", "setting": "[3]; oral administration, 6 h", "value": 0.4, "unit": "%"}, {"measurement": "total radioactivity in liver", "setting": "[3]; oral administration, 24 h", "value": "4 μg equivalents of Compound 1/g of liver"}, {"measurement": "total radioactivity in liver, % of the dose", "setting": "[3]; oral administration, 24 h", "value": 0.2, "unit": "%"}, {"measurement": "CC50 at 3 days", "setting": "[4]", "value": "> 100", "unit": "µM"}]}
